The record followed here is patent publication US6433178B1, “3-alkyl-3-phenyl-piperidines” (Warner-Lambert Company, priority 1996, dated 2002).

Structures are written as SMILES.

The target in one series is T1, human NK1 receptors (Homo sapiens, UniProt P25103).
T1 construct: expressed in transfected cells; host or cells: CHO cells
Kind of series: Receptor binding in transfected CHO cells (125I-labeled ligand displacement), NK1. To be noted: CHO cells expressing human NK1; 0.2 nM 125I-labeled ligand; 1 hour at room temperature. The protocol:
(§1) 1. Receptor Binding in Transfected CHO Cells
(§2) CHO cells expressing either human NK1 or NK3 receptors were cultured in Ham's F-12 Nutrient Mixture supplemented with 10% fetal call serum and 1% penicillin/streptomycin. Cells were seeded to 96-well Wallac (Gaithersburg, Md.) rigid crosstalk corrected cell culture plate 1 day before experiment. On the day of each experiment, cells were washed twice with phosphate buffered saline (PBS) and appropriate agonists or antagonists were added and incubated in 0.2 nM ^125I-labeled ligand in PBS containing 0.4 mg/mL BSA, 0.08 mg/mL bacitracin, 0.004 mg/mL chymostatin, 0.004 mg/mL leupeptin, 1 μM thiorphan, 25 μM phosphoramidon, and 2 mM MnCl2. The cells were incubated for 1 hour at room temperature and the reactions terminated by two washes with ice cold PBS. Fifty microliters of 2% SDS followed by 175 μL of Ready Gel (Beckman) were added to each well. Plates were vortexed, and the radioactivity was quantified in a Wallac 1450 microbeta scintillation counter. Nonspecific binding was determined in the presence of 1 μM unlabeled corresponding ligand. Receptor binding data were analyzed with nonlinear curve fitting using KaleidaGraph software package (PCS Inc., Reading, Pa.). IC50 values were determined using a modified Hill equation, [formula]
(§3) where cold ligand represents unlabeled ligand, L represents the concentration of unlabeled ligand, n the Hill coefficient, and IC50 the concentration of unlabeled ligand that causes 50% inhibition of the total specific binding of 0.2 nM radiolabeled ligand.

The target of series [1] is T2, NK3 receptors (Homo sapiens, UniProt P29371).
T2 construct: expressed in transfected cells; host or cells: CHO cells
T2 sequence (P29371 1-465): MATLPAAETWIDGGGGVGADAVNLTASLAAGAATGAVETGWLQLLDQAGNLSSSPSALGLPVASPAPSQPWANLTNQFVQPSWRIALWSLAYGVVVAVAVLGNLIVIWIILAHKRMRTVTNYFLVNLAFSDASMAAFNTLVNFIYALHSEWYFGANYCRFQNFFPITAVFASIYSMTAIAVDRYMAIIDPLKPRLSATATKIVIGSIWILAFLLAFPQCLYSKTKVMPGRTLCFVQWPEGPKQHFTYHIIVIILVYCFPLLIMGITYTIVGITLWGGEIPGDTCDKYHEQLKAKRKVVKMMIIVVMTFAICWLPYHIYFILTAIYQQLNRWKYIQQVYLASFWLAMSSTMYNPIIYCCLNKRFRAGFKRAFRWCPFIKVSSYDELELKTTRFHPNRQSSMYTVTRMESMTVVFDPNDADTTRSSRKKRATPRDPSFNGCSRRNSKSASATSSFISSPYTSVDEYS
Description: Receptor binding in transfected CHO cells (125I-labeled ligand displacement), NK3. Particulars: CHO cells expressing human NK3; 0.2 nM 125I-labeled ligand; 1 hour at room temperature. As to the method: as §1, §2, §3

For series [2], the target named is T2, NK3 receptors. Description: Inhibition of agonist-induced phosphatidylinositol turnover (inositol phosphates accumulation) in transfected CHO cells. The series is classed as cell-based. To be noted: CHO cells expressing NK3 receptors; 1 μM of tested compounds; pKB=log(dose ratio−1)−log[B]. As to the method: 2. Inhibition of Phosphatidylinositol Turnover in Transfected CHO Cells
The inhibitory effects of these compounds on agonist-induced phosphatidylinositol turnover was estimated by measuring their effects on inositol phosphates (IP) accumulation in CHO cells expressing NK3 receptors. Briefly, cells (10,000/well) were seeded in 96-well cell culture plates 24 hours before changing medium to EMEM/F-12 (w/Earle's salt, w/glutamine; GIBCOL) containing 10 μCi/mL [^3H]inositol. After overnight incubation with [^3H]inositol, medium was removed and cells were washed twice with assay buffer (MEM with 10 mM LiCl, 20 mM HEPES, and 1 mg/mL BSA). Cells were then incubated with various concentrations of agonists with or without 1 μM of tested compounds for 1 hour. Reactions were stopped by two washes with ice-cold PBS followed by the addition of 0.1 mL ice-cold 5% TCA to each well. The TCA extract was applied to a […] column containing AG 1-X8 resin (Bio-Rad) and washed three times with 5 mM myo-inositol. Inositol phosphates (IP) was eluted with 1 M ammonium formate/0.1 M formic acid. Radioactivity was determined by liquid scintillation counting. Data were analyzed with nonlinear curve fitting using KaleidaGraph software package (PCS Inc, Reading, Pa.). The pKB values in Table 2 were calculated according to the formula: pKB=log(dose ratio−1)−log[B].

Series [3] can be described thus: Pharmacokinetics in male Wistar rats after an oral dose. In kind it is in vivo. To be noted: oral dose of ~20 mg/kg, solution in PEG 400/Ethanol/Water (40/15/45); for AUC / Cmax / Tmax / half-life: rat, plasma; for AUC: read-out: AUC(0-tldc) (area under the plasma concentration-time curve from zero time to the last detectable concentration); for Cmax: read-out: Cmax (the highest plasma concentration); for Tmax: read-out: tmax (time to reach the highest plasma concentration); for half-life: read-out: t½ (terminal elimination half-life) (converted).

T1 sequence (P25103 whole entry): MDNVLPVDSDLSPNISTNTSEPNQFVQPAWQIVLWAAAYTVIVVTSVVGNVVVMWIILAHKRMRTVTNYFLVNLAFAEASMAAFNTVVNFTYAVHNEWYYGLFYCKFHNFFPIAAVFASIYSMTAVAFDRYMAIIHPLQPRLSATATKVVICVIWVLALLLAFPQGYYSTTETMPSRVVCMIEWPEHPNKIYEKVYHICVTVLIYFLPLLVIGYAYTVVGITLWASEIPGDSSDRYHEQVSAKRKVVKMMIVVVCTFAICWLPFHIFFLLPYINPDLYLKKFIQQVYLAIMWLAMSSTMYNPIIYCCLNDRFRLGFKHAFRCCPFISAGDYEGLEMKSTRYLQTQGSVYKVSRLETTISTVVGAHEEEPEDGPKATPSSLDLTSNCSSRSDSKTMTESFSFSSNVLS

In the case of `Cl.O=C(c1ccccc1)N1CCCC(CCCN2CCC(O)(CS(=O)(=O)c3ccccc3)CC2)(c2ccc(Cl)c(Cl)c2)C1` (centres unmarked) [Compound 20-1, {3-[3-(4-Benzensulfonylmethyl-4-hydroxy-piperidin-1-yl]-3-(3,4-dichlorophenyl)-piperidin-1-yl}-phenyl-methanone monohydrochloride], the values for the IC50 on human NK1 receptors and at NK3 receptors [1] were above 1000 nM and 5.9 ± 0.4 nM, respectively.

Regarding `Cl.O=C(c1ccccc1)N1CCCC(CCCN2CCC(O)(CS(=O)(=O)c3ccccc3)CC2)(c2ccc(Cl)c(Cl)c2)C1` (centres unmarked) [Compound 20-1], at NK3 receptors [2], the pKB worked out at 8.2 ± 0.4. In series [3] (mean), the “tmax (time to reach the highest plasma concentration)” value amounted to 1.3 h. Further, in series [3] (mean (SD)), the “AUC(0-tldc) (area under the plasma concentration-time curve from zero time to the last detectable concentration)” value is given as 366 (140) ng · hr/mL and the “Cmax (the highest plasma concentration)” value was 74.0 (12.9) ng/mL.

Compound `Cl.O=C(c1ccccc1)N1CCCC(CCCN2CCC(O)(c3ccccc3)CC2)(c2ccc(Cl)c(Cl)c2)C1` (centres unmarked) [Compound 20-2, {3-(3,4-Dichlorophenyl)-3-[3-(4-hydroxy-4-phenyl-piperidin-1-yl)-propyl]-piperidin-1-yl}-phenyl-methanone monohydrochloride] registered an IC50 at human NK1 receptors above 1000 nM. The Kb at NK3 receptors [2] is 5.01 nM. In addition, the IC50 on NK3 receptors [1] was found to be 6.2 ± 0.6 nM. Further, in series [3] (mean (SD)), the AUC turned out to be 716 ng·h/mL and the Cmax is 125 ng/mL. In series [3] (mean), the Tmax was found to be 1.3 h and the half-life was 7.4 h.

Consider `Cl.O=C(c1ccccc1)N1CCCC(CCCN2CCC(c3ccccc3)CC2)(c2ccc(Cl)c(Cl)c2)C1` (centres unmarked) [Compound 20-3, {3-(3,4-Dichlorophenyl)-3-[3-(4-phenyl-piperidin-1-yl)-propyl]-piperidin-1-yl}-phenyl-methanone monohydrochloride], for which the 50% inhibitory concentration (IC50) on human NK1 receptors turned out to be 694 ± 89 nM. Besides, the Kb on NK3 receptors [2] was 12.6 nM. At NK3 receptors [1], this compound displayed a half-inhibitory concentration (IC50) of 17.8 ± 1.5 nM. Besides, in series [3] (mean (SD)), the AUC worked out at 572 ng·h/mL and the Cmax was found to be 107 ng/mL. For the same compound, the Tmax in series [3] (mean) was found to be 1.8 h.

In the case of `CC(=O)N(C)C1(c2ccccc2)CCN(CCC[C@]2(c3ccc(Cl)c(Cl)c3)CCCN(C(=O)c3ccccc3)C2)CC1` [SR 142801, reference compound], in series [3] (mean (SD)), the AUC is 703 ng·h/mL and the Cmax was determined as 133 ng/mL. Further, in series [3] (mean), the Tmax came out at 1.8 h and the half-life is 5.3 h.
